Test results: paper PMC11093748, “De novo identification of CD4^+ T cell epitopes” (Nature Methods, 2024)

What was measured:
GSE.20D11 TCR [1] = assay: HLA-DQ8 SABR-II (+ HLA-A2.1 SABR) library screen, enrichment score; format: cell-based, human; details: combined class I and II library
Source text: To test whether HLA-DQ8 SABR-II could be used for antigen discovery, we curated a list of insulin B, insulin C and HIP epitopes published by Wiles et al.[58] and cloned them into the DQ8 SABR-II backbone using the same pooled cloning strategy as the I-Ag7 SABR-II library (Supplementary Table 2). Furthermore, we combined SABR-I (the HLA-A*0201 library reported in our previous work[27]) and SABR-II libraries at a cellular level and screened against the GSE.20D11 TCR.
To generate the I-Ag7 restricted SABR library, we combined all Immune Epitope Database epitopes with a published immunopeptidome generated by Wan et al.[51]. Sequences were filtered remove all post-translational modifications except deamidation and HIPs and trimmed between 9–25 amino acid lengths. For the insulin C HIP and HLA-DQ8 library, non-contiguous epitopes from Wiles et al.[66] as well as all Immune Epitope Database epitopes were combined to generate the epitope list. Epitope sequences were back-translated using the backtranslate_fast.py script.
(§1) For SABR library screens, 3 × 10^6 NFAT–GFP Jurkat cells expressing the SABR library were labeled with CellTrace Violet (BioLegend) according to the manufacturer’s protocol before incubation with 3 × 10^6 Jurkat cells expressing the TCR of interest. These mixtures were incubated in a six-well plate for 16–20 h. Cells were stained with anti-CD69-APC-Cy7 where indicated (BioLegend) and the top 1–2% of GFP^+CD69^+ cells were sorted for genomic DNA extraction, indexing and sequencing (see below). Multiplexed assays were scaled on a per-TCR basis (for example 3 × 10^6 for each of three TCRs against 9 × 10^6 library cells). For single SABR assays, unless otherwise defined, 5 × 10^5 SABR expressing NFAT–GFP Jurkat cells (or 5KC cells) were labeled with CellTrace Violet (BioLegend) according to the manufacturer’s protocol before incubation with 5 × 10^5 TCR-expressing Jurkat cells (or 5KC cells) in a round-bottom 96-well plate for 16–20 h. Cells were stained with anti-CD69-APC-Cy7 when indicated and acquired on the Attune NxT flow cytometer (Thermo Fisher Scientific). All flow analysis was performed using FlowJo (BD). For Daudi cell co-culture, 1 × 10^6 Jurkat cells expressing the TCR of interest were incubated with 1 × 10^6 Daudi cells expressing a SABR of interest for 3 days. On day 3, cells were labeled with anti-RT1B-PE and anti-Fas-APC-Cy7 before being acquired on the Attune NxT flow cytometer.
Genomic DNA was extracted from sorted cells immediately after sorting, using the PureLink genomic DNA extraction kit (Life Technologies). The integrated SABR vectors were amplified with KOD polymerase (Millipore) and two rounds of amplification. In the first round, IDT-UD-SABR-C2-F and IDT-UD-SABR-C2-R primers were used to amplify the epitope. In the second round, UDI0001-R and UDI0001-F primers (representative of index 1) were used to add Illumina unique dual indexes (UDIs) to the amplicons. A different UDI was used for each sample. The reactions were pooled and purified with the NucleoSpin gel and PCR purification kit (Takara). The purified PCR product was checked before sequencing using 2% agarose gel and subjected to sequencing on a HiSeq4000 (Fulgent Genetics). Unaligned reads generated by the sequencer were stored in FASTQ files. FASTQ files were concatenated to generate one file for read1 and read2 each. The sequences were demultiplexed into individual indexes using demultiplex_dual.py. Epitopes were extracted and scored using epitope_extract_fastq_v1.1.py and merge_counts_split_v2.1.py. The ES was calculated using Microsoft Excel (Microsoft) workbooks.

GSE.20D11 TCR [2] = assay: Single SABR-II co-incubation, NFAT-GFP Jurkat (HLA-DQ8); format: cell-based, human; details: HLA-DQ8 SABR-II
Source text: (§2) We have previously described SABRs, which are chimeric receptors containing an extracellular pMHC complex attached to an intracellular CD28-CD3ζ signaling domain. […] We sought to expand this platform to allow antigen discovery for MHC/HLA-II with seamless integration with class I alleles. Here, we created SABRs to present epitopes in MHC-II alleles, by covalently linking the epitope to the β-chain of MHC-II that is attached to the CD28-CD3ζ signaling domains downstream, along with a 2A peptide-linked MHC-II α-chain (Fig. 1a,b). To test whether SABR-IIs could present epitopes to TCRs and induce a signal, we expressed them using lentiviral vectors in NFAT–GFP Jurkat cells, which express green fluorescent protein (GFP) upon NFAT activation and translocation downstream of CD3ζ activation (a kind gift from Y. Chen and A. Weiss). We constructed murine SABR-IIs presenting epitopes in I-Ab, I-Ad and I-Ag7 (Ova, […][41]; ATEG, […][42]; and 2.5mimo, […][43], respectively). We co-incubated the SABR-II-expressing NFAT–GFP Jurkat cells with a separate population of Jurkat cells expressing either the BDC2.5 TCR (recognizes I-Ag7-2.5mimo), OT-II TCR (recognizes I-Ab-Ova), 5-4-E8 TCR (recognizes I-Ad-ATEG) or no TCR. […] The signal from the NFAT–GFP reporter offered minimal background in absence of a cognate TCR and correlated with surface SABR expression in the presence of a cognate TCR (Extended Data Fig. 1c–e). […] We confirmed the ability of the DQ8-InsB9:23 SABR-II to present the epitope to two previously described, T1D patient-derived TCRs GSE.6H9 and GSE.20D11 (ref. [46]).
as §1

GSE.6H9 TCR = assay: as above; format: cell-based, human; details: HLA-DQ8 SABR-II
Source text: as §2, §1

TCR37 = assay: mIL-2 ELISA, TCR-expressing 5KC cells with SABR NFAT-GFP Jurkat cells; format: cell-based, mouse; details: murine IL-2 ELISA, 24 hr co-incubation

SHLVEALYLVCGERG
enrichment in screen (in words) (GSE.20D11 TCR [1]): enriched at a high confidence level
frequency of GFP+CD69+ cells (in words) (GSE.20D11 TCR [2]): high frequency of GFP^+CD69^+ cells
frequency of GFP+CD69+ cells (in words) (GSE.6H9 TCR): high frequency of GFP^+CD69^+ cells
IL-2 secretion (TCR37; technical replicate 1): 37.8351
IL-2 secretion (TCR37; technical replicate 2): 38.2928
